Results as given in patent US11083197B2, “Herbicidal composition comprising chromone derivatives and a method for weed control” (INVESTIGACIONES BIOLÓGICAS EN AGROQUÍMICOS ROSARIO S.A., priority 2015, dated 2021).

Key:
lettuce (Lactuca sativa) = experiment: Germination / dose-response bioassay with lettuce; type: in vivo; details: 1 mM; 24-well plates; rating scale of 0 to 5
Method: (§1) DCM extract of flowers of A. visnaga (1.6 g) was divided in two 800 mg halves and each one was subjected to column chromatography using an Isolera One system (Biotage), equipped with UV detector (302 and 365 nm) and automatic fraction collector. Separation was performed by normal-phase chromatography column using a SNAP Cartridge KP-Sil (37×157 mm, 50 μm irregular silica, 100 g, Biotage) and a pre-packaged SNAP Samplet Cartridge KP-Sil (37×17 mm, Biotage). A full gradient of hexane:ethyl acetate was used for elution, from 100:0 to 0:100 over 3000 ml. Flow was 40 ml/min and 25 ml fractions were collected. Equal fractions were combined based on similarities on their TLC and chromatogram profiles providing nineteen fractions named I to XIX. All fractions were evaluated for their phytotoxicity on germination bioassay of lettuce (L. sativa) and creeping bentgrass (A. stolonifera).
(§2) A filter paper and 5 lettuce or 10 mg of creeping bentgrass seeds were placed in each well of a 24-well plate. Stock solutions (10×) of test compounds were prepared in acetone. 180 μl of distilled water were added to each well together with 20 μl of stock solution or acetone in solvent control. Final concentration of acetone was 10% v/v. Plates were sealed with Parafilm, and incubated at 26° C. in a growth chamber set at 173 μmol m^−2 s^−1 continuous photosynthetically active radiation. Phytotoxic activity was qualitatively evaluated by visually comparing germination in each well with solvent control at 7 days. A qualitative estimation of phytotoxicity was obtained by using a rating scale of 0 to 5, where 0 was no effect, and 5 was no germination of seeds. This procedure was also used for testing the phytotoxicity of pure compounds on ryegrass. On this experiment 12-well plates were used. 10 seeds were placed per well and final volume was 300 μl in each one. During dose-response bioassays used for IC50 determination, germination percentage and length of plants were measured at 7 days in order to determine the concentration required for 50% germination and growth inhibition (IC50). All experiments were done in triplicate.
Using method described in Example 1, compounds of Formula III and IV above were tested against lettuce and ryegrass.
The percentage of germination and length of plants were determined at 7 days. Data represents means of three replicates±SD. The IC50 values, for both germination and growth inhibition by compounds III and IV on lettuce and ryegrass, were obtained from estimated parameters in the regression curves.
Statistical Analysis. Data from dose-response experiments were analyzed by a log-logistic model^37-38 using the dose-response curve module^39 of R software version 2.2.1.^40 Concentrations required for 50% germination or growth inhibition relative to control (IC50 values) were obtained from estimated parameters in the regression curves. The standard error (SE) of each estimation is provided. Data from phytotoxicity bioassays in the laboratory and greenhouse, ROS and cell death quantifications were analyzed by ANOVA using the InfoStat statistical software version 2015,^41 and Scheffe's test was employed to compare the means at α=0.05.

[1] = tested on: creeping bentgrass (A. stolonifera); experiment: Germination bioassay with creeping bentgrass; type: in vivo, Agrostis stolonifera; details: 1 mM; 24-well plates; rating scale of 0 to 5
Method: as §1, §2

lettuce = experiment: Postemergence bioassay with lettuce in Petri dishes; type: in vivo; details: Lactuca sativa, post-emergence, read-out: Average growth inhibition (%) as percentage of control
Method: Compounds of formula III and IV above were tested at different concentrations in a postemergence bioassay (in Petri dishes) against lettuce. Lettuce seeds were pre-incubated in Petri dishes with a filter paper and water for 2 days. After that, seedlings (15 mm approx.) were moved to a new Petri dish containing 4 mL of an aqueous solution of each compound or commercial herbicide. Plants length was measured at day 6 (4 days after postemergence application of the compounds). The results were compared to those obtained with acetochlor and glyphosate.
Plant length's axis starts in 15 mm because seeds were pre-incubated in water, so all seedlings were around 15 mm long at the beginning of the treatment.

ryegrass = experiment: Postemergence bioassay with ryegrass in Petri dishes; type: in vivo; details: Lolium multiflorum, post-emergence, day 6 (4 days after application), read-out: Growth inhibition (%) as percentage of control
Method: Plant length was measured at day 6 (4 days after application of the compounds)
Plant length's axis starts in 5 mm because seeds were pre-incubated in water, so all seedlings were around 5 mm long at the beginning of the treatment.

| Structure (SMILES) | Phytotoxicity at day 7, Lettuce (lettuce (Lactuca sativa)) | Phytotoxicity at day 7, Creeping bentgrass [1] | other results |
| --- | --- | --- | --- |
| Cc1cc(=O)c2c(O)c3ccoc3c(O)c2o1 [4,9-dihydroxy-7-methyl-5H-furo[3,2-g]chromen-5-one] | 3 | 1 | – |
| COc1c2occc2c(OC)c2c(=O)cc(C(=O)O)oc12 [4,9-dimethoxy-5-oxo-5H-furo[3,2-g]chromen-7-carboxilic acid] | 3 | 3 | – |
| COc1c2occc2c(O)c2c(=O)cc(C)oc12 [4-hydroxy-9-methoxy-7-methyl-5H-furo[3,2-g]chromen-5-one] | 2 | 1 | – |
| CCOCN(C(=O)CCl)c1c(C)cccc1CC [Acetochlor, reference compound] | – | – | inhibition at 540 µM (lettuce; 0.54 mM, day 6 (4 days after postemergence application)): 60%; inhibition at 540 µM (ryegrass; 540 μM): 97% |
| O=c1ccoc2ccccc12 [Chromone, 1-benzopyran-4-one] | 3 | 4 | – |
| O=C(O)CNCP(=O)(O)O [Glyphosate, reference compound] | – | – | inhibition at 750 µM (lettuce): 45%; inhibition at 750 µM (ryegrass; 750 μM): 75% |
| COc1c2ccoc2cc2oc(COC3OC(CO)C(O)C(O)C3O)cc(=O)c12 (centres unmarked) [Khelloside, Khellol-glucoside] | 1 | 2 | – |
